US10278988B2, “Reducing the proliferation of carcinoma cells by administration of a poly-oxygenated metal hydroxide” (priority 2016, dated 2019)

System: mammal
Settings: in vivo

“poly-oxygenated aluminum hydroxide [Ox66™]” was tested, and the “negative effects in toxicology studies” value was “does not create any negative effects”.
